Reference: patent publication US11014915B2, “Selective estrogen receptor degrader” (SUN PHARMA ADVANCED RESEARCH COMPANY LIMITED, priority 2019, dated 2021)

How the values were obtained:
[1] = target: T1, ER-α in MCF-7 cells harboring mutant ER (WT/D538G) (Homo sapiens, UniProt P03372, D538G); test: ER-α degradation (SERD) assay, MCF-7 D538G; format: cell-based; conditions: for DC50: MCF-7 D538G, 4 days, read-out: ER-α degradation assay D538G IC50
T1 construct: MCF-7 cells harboring mutant ER (WT/D538G and WT/Y537S); endogenous in cells; host or cells: MCF-7 D538G (WT/D538G)
T1 sequence (P03372 1-595 D538G): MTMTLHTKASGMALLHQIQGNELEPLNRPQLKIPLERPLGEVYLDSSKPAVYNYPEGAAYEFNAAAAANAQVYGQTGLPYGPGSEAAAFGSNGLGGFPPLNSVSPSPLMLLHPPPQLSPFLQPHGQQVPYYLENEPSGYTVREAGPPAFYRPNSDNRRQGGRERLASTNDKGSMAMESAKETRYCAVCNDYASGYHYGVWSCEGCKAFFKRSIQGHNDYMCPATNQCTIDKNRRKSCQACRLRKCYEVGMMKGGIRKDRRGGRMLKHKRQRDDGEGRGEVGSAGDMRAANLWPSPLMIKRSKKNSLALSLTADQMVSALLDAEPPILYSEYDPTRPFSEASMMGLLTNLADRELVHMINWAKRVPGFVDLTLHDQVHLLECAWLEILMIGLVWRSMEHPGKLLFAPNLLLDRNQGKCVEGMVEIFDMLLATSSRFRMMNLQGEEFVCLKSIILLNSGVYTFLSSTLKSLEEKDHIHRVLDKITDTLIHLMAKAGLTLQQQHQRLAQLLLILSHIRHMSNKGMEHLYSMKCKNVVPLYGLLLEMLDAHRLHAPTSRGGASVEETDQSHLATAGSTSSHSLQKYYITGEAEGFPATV
Description: Selective Estrogen Receptor Degradation (SERD) Assay:
The SERD activity for the test compounds was evaluated in MCF-7 cells harboring ER wild type, and MCF-7 cells harboring mutant ER (WT/D538G and WT/Y537S). Briefly, cells were plated in phenol red free RPMI1640 medium supplemented with 5% charcoal stripped fetal bovine serum. The seeding density was 40000 cells/well for MCF-7 WT and MCF-7 D538G and 50000 cells/well MCF-7 Y537S in a 48-well plate. Following overnight incubation, the cells were treated with varying concentrations of test compounds (final concentration: 1000 nM to 0.01 nM, 0.1% DMSO) for 4 days. The cells were lysed using PBS supplemented with 1 mM EDTA, 0.5% Triton X-100, 5 mM NaF, 6 M urea, and 1× Protease inhibitor cocktail. The lysate was analyzed for ER alpha protein using western blot. For the western blot, the cell lysate (12.5-40 μg total protein) was resolved on a 10% SDS PAGE and transferred onto a PVDF membrane. The blots were blocked using 5% skim milk powder in 0.1% PBS-T for 1 hour at room temperature, followed by co-incubation with rabbit anti-human β-actin antibody and rabbit anti-human ERα antibody for 2 hours at room temperature. The blots were subsequently probed with anti-rabbit IgG-HRP conjugate as secondary antibody for 1 hour at room temperature. The blots were developed by using West Pico Super Signal Chemiluminescence substrate and the bands were processed for densitometry analysis using Image Lab software (BioRad version 6.0.0). ERα band intensity was normalized to that housekeeping protein for respective samples. The % ER remaining was calculated by normalizing against the vehicle control (as 100%).

[2] = tested on: subcutaneous MCF7-Y537S xenografts; test: In-vivo efficacy in MCF7-Y537S mice xenografts; design: species or system female athymic nude mice
Description: In-Vivo Efficacy of Compound of Formula I and Compound of Formula Ia: […]
The efficacy of the compound of Formula I and the compound of Formula Ia were evaluated in female athymic nude mice harboring subcutaneous MCF7-Y537S xenografts. Dose formulations of the compound of Formula I and the compound of Formula Ia were prepared in Tween 80 (0.4% v/v of the total volume of suspension) in 0.5% w/v carboxymethylcellulose (CMC) and administered once daily orally for 28 days. Two perpendicular diameters of tumor were measured with digital Vernier caliper. Tumor volume (V) was calculated using the following equation: V=(a^2×b)/2, where “a” is the width of the tumor (small diameter), and “b” the length (large diameter), both in millimeters. Tumors were monitored twice weekly and compared with a vehicle treated group.

[3] = tested on: MCF-7 cells harboring mutant ER (WT/D538G); test: MCF-7 cell growth inhibition assay, D538G; format: cell-based; conditions: Homo sapiens, MCF7, 168 h; MCF-7 D538G, seven-day incubation
Description: MCF-7 Cell Growth Inhibition Assay:
The anti-proliferative activity of the test compounds were evaluated in a growth inhibition assay. Briefly, MCF-7 cells harboring ER wild type (Wt), and MCF-7 cells harboring mutant ER (WT/D538G and WT/Y537S) were seeded at a density of 1000 cells/well in 96-well plate in phenol red free RPMI1640 medium supplemented with 10% charcoal stripped fetal bovine serum. The cells were incubated overnight at 37° C. and 5% CO2 followed by the addition of varying concentrations of the test compounds in DMSO. Final concentration of DMSO in the well was 0.5%. Following a seven-day incubation of cells with the test compounds, cell viability was assessed using a Prestoblue™ reagent. The percent inhibition of cell proliferation was calculated by normalizing the cell viability using a vehicle control as 0% inhibition of proliferation.

Structure (SMILES)	DC50 [1] [nM]	% Tumor growth inhibition compared to vehicle group after 28 days ([2]; 50 mg/kg, p.o., 28 days, once daily) [%]	Tumor growth compared to the vehicle group (in words) ([2]; once daily orally for 28 days)	IC50 [3] [nM]	ER-α degradation in mutated cell line (in words) ([1]; D538G)
CC1=C(c2cc(F)cc(F)c2)[C@H](c2ccc(/C=C/CN3CC(CF)C3)cc2)Oc2cc(O)ccc21 [Formula Ia, (2S)-3-(3,5-difluorophenyl)-2-[4-[(E)-3-[3-(fluoromethyl)azetidin-1-yl]prop-1-enyl]phenyl]-4-methyl-2H-chromen-7-ol]	12.7	56	significant reduction in the tumor growth	2.2	–
CC1=C(c2cc(F)cc(F)c2)[C@@H](c2ccc(/C=C/CN3CC(CF)C3)cc2)Oc2cc(O)ccc21 [Formula Ib, (2R)-3-(3,5-difluorophenyl)-2-[4-[(E)-3-[3-(fluoromethyl)azetidin-1-yl]prop-1-enyl]phenyl]-4-methyl-2H-chromen-7-ol]	> 1000	–	–	345	no ER-α degradation
